The source of these data is US6472348B1, “Pyridone derivatives and herbicides” (Kumiai Chemical Industry Co., Ltd., priority 1996, dated 2002).

For data set [1], the system named is Diaitaria ciliaris (Di). The experiment in a line: Test Example 5: crop plant selectivity by upland field soil treatment (wheat), herbicidal effects. The format is in vivo. Conditions: 21st day after application. The method, then: (§1) (Test on Crop Plant Selectivity by Upland Field Soil Treatment)
In a plastic pot (surface area: 600 cm^2) filled with sand, wheat (Tr), Diaitaria ciliaris (Di), green foxtail (Se), pale smartweed (Po), slender amaranth (Am), common lambsquarters (Ch) and China jute (Ab) were sown and covered with soil. […] The plants were then cultured in a green house, and the evaluation of the herbicidal effects and phytotoxicity was conducted on the 21st day after the application in accordance with the standards as identified in Table 47. Symbol—represents “not tested”.

The subject of data set [2] is Diaitaria ciliaris (Di). As to the kind of experiment: Test Example 4: crop plant selectivity by upland field soil treatment (cotton), herbicidal effects. The format is in vivo. Conditions: evaluated 21st day after application. In a few lines: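 Seeds of cotton and several weed species were sown in sand-filled pots and covered with soil before soil treatment with the test compound. Plants were grown in a greenhouse, and herbicidal effect and crop phytotoxicity were scored against set standards 21 days after application.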

In the next data set the test system is Johnsongrass (So). The experiment in a line: Test Example 6: crop plant selectivity by upland field soil treatment (soybean), herbicidal effects. The format is in vivo. Conditions: 21st day after application. The method, then: as §1
(§2) In a plastic pot (surface area: 600 cm^2) filled with sand, soybean (Gl), Diaitaria ciliaris (Di), green foxtail (Se), Johnsongrass (So), pale smartweed (Po), slender amaranth (Am), common lambsquarters (Ch) and China jute (Ab) were sown and covered with soil. […] The plants were then cultured in a green house, and the evaluation of the herbicidal effects and phytotoxicity was conducted on the 21st day after the application in accordance with the standards as identified in Table 47. Symbol—represents “not tested”.

Data set [3] has as its system Diaitaria ciliaris (Di). Described as above. The format is in vivo. As to conditions: 21st day after application. How it is done: as §1, §2
A further data set concerns soybean (Gl). As to the kind of experiment: Test Example 10: crop plant selectivity by upland field foliage treatment (soybean), phytotoxicity. Conditions: dose 1.6 g ai/10a, 14th day after treatment. How it is done:
(§3) (Test on Crop Plant Selectivity by Upland Field Foliage Treatment)
In a plastic pot (surface area: 600 cm^2) filled with sand, soybean (Gl), pale smartweed (Po), slender amaranth (Am), common lambsquarters (Ch) and China jute (Ab) were sown and cultured in a green house for 2 weeks. […] The plants were then cultured in a green house, and the evaluation of the herbicidal effects and phytotoxicity was conducted on the 14th day after the treatment in accordance with the standards as identified in Table 47.

For data set [4], the system named is slender amaranth (Am). The experiment in a line: Test Example 10: crop plant selectivity by upland field foliage treatment (soybean), herbicidal effects. Conditions: dose 1.6 g ai/10a, 14th day after treatment. The format is in vivo. In a few lines: (§4)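 Soybean and weeds were grown in sand in a greenhouse for 2 weeks before foliar treatment. Herbicidal effect on weeds and phytotoxicity on soybean were scored on day 14 after treatment against a graded scale.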

The subject of data set [5] is China jute (Ab). The data set is described as above. The format is in vivo. Conditions: dose 1.6 g ai/10a, 14th day after treatment. In a few lines:
as §4

For data set [6], the system named is pale smartweed (Po). The data set is described as above. The format is in vivo. Conditions: dose 1.6 g ai/10a, 14th day after treatment. An outline of the steps:
as §4

Data set [7] concerns common lambsquarters (Ch). The experiment in a line: Test Example 8: crop plant selectivity by upland field foliage treatment (cotton), herbicidal effects. The format is in vivo. Conditions: dose 1.6 g ai/10a, 14th day after treatment. How it is done: as §3
(§5) In a plastic pot (surface area: 600 cm^2) filled with sand, cotton (Go), pale smartweed (Po), slender amaranth (Am), common lambsquarters (Ch) and China jute (Ab) were sown and cultured in a green house for 2 weeks. […] The plants were then cultured in a green house, and the evaluation of the herbicidal effects and phytotoxicity was conducted on the 14th day after the treatment in accordance with the standards as identified in Table 47.

Data set [8] has as its system slender amaranth (Am). Described as above. The format is in vivo. Conditions: dose 1.6 g ai/10a, 14th day after treatment. The method, then:
as §3, §5

Data set [9] has as its system China jute (Ab). The description is as above. The format is in vivo. As to conditions: dose 1.6 g ai/10a, 14th day after treatment. How it is done: as §3, §5
The subject of data set [10] is pale smartweed (Po). The data set is described as above. The format is in vivo. As to conditions: dose 1.6 g ai/10a, 14th day after treatment. How it is done: as §3, §5
A further data set concerns cotton (Go). The experiment in a line: Test Example 8: crop plant selectivity by upland field foliage treatment (cotton), phytotoxicity. The format is in vivo. As to conditions: dose 1.6 g ai/10a, 14th day after treatment. The method, then:
as §3, §5

As for `C#CC(C)Oc1cc(-c2cn(C)c(C(F)(F)F)cc2=O)c(F)cc1Cl` (racemic) [Compound 6-10], the “Herbicidal effects Di” value in the data set on Diaitaria ciliaris (Di) [1] (dose 1.6 g ai/10a), in the data set on Diaitaria ciliaris (Di) [2] (dose 1.6 g ai/10 a), with Diaitaria ciliaris (Di) [2] (dose 6.3 g ai/10 a) and with Diaitaria ciliaris (Di) [3] (dose 1.6 g ai/10a) was 5 in each case. For the same compound, in the data set with Johnsongrass (So) (dose 1.6 g ai/10a), the “Herbicidal effects So” value is listed as 5.

For the compound `COc1cc(-c2ccc(C(F)(F)F)n(C)c2=O)c(F)cc1Cl` [1-15], the “Herbicidal effects Di” value in the data set with Diaitaria ciliaris (Di) [2] (dose 6.3 g ai/10 a) is 5.

In the case of `Cn1c(C(F)(F)F)ccc(-c2cc(OCCCl)c(Cl)cc2F)c1=O` [1-171], the “Phytotoxicity Gl” value in the data set on soybean (Gl) was 2. Moreover, the “Herbicidal effects Am” value in the data set on slender amaranth (Am) [4] was 5. The “Herbicidal effects Ab” value in the data set on China jute (Ab) [5] was determined as 5. In addition, the “Herbicidal effects Po” value in the data set on pale smartweed (Po) [6] is 5.

`C=CC(C)Oc1cc(-c2ccc(C(F)(F)F)n(C)c2=O)c(F)cc1Cl` (stereo not drawn) [Compound 1-182]: in data set [7], the “Herbicidal effects Ch” value is given as 5. Further, the “Herbicidal effects Am” value in the data set on slender amaranth (Am) [8] was found to be 5. Also, the “Herbicidal effects Ab” value in the data set with China jute (Ab) [9] amounted to 5. For the same compound, the “Herbicidal effects Po” value in the data set with pale smartweed (Po) [10] amounted to 5. Moreover, the “Phytotoxicity Go” value with cotton (Go) is 2.

For `CCON=Cc1cc(-c2ccc(C(F)(F)F)n(C)c2=O)c(F)cc1Cl` [Compound 1-187], the “Phytotoxicity Gl” value in the data set with soybean (Gl) was 2. Also, the “Herbicidal effects Ch” value in [7] came to 5. The “Herbicidal effects Am” value with slender amaranth (Am) [8] and in the data set with slender amaranth (Am) [4] was 5 in each case. In addition, the “Herbicidal effects Ab” value in the data set on China jute (Ab) [9] and with China jute (Ab) [5] was 5 in each case. In addition, the “Herbicidal effects Po” value in the data set with pale smartweed (Po) [10] and in the data set with pale smartweed (Po) [6] was 5 each time. For the same compound, the “Phytotoxicity Go” value with cotton (Go) worked out at 2.

Consider `CSCOc1cc(-c2ccc(C(F)(F)F)n(C)c2=O)c(F)cc1Cl` [Compound 1-208], for which the “Phytotoxicity Gl” value in the data set with soybean (Gl) came out at 2. The “Herbicidal effects Am” value in the data set on slender amaranth (Am) [4] came out at 5. In addition, in the data set on China jute (Ab) [5], the “Herbicidal effects Ab” value turned out to be 5. Further, the “Herbicidal effects Po” value with pale smartweed (Po) [6] was 5.

`C=CCN1C(=O)COc2cc(F)c(-c3ccc(C(F)(F)F)n(C)c3=O)cc21` [Compound 2-7]: the “Herbicidal effects Di” value in the data set with Diaitaria ciliaris (Di) [1] (dose 1.6 g ai/10a), with Diaitaria ciliaris (Di) [2] (dose 1.6 g ai/10 a), in the data set with Diaitaria ciliaris (Di) [2] (dose 6.3 g ai/10 a), with Diaitaria ciliaris (Di) [3] (dose 1.6 g ai/10a) and with Diaitaria ciliaris (Di) [3] (dose 6.3 g ai/10a) was 5 in each case. The “Herbicidal effects So” value in the data set with Johnsongrass (So) (dose 1.6 g ai/10a) and in the data set with Johnsongrass (So) (dose 6.3 g ai/10a) was 5 in each case.

With `CCCc1cc2c(-c3ccc(C(F)(F)F)n(C)c3=O)c(F)cc(Cl)c2o1` [Compound 4-3], the “Phytotoxicity Gl” value in the data set with soybean (Gl) stood at 2. Further, in the data set on slender amaranth (Am) [4], the “Herbicidal effects Am” value is recorded as 5. In addition, the “Herbicidal effects Ab” value with China jute (Ab) [5] is on record as 5. For the same compound, the “Herbicidal effects Po” value with pale smartweed (Po) [6] came out at 5.

In the case of `CCc1cc2c(Cl)cc(F)c(-c3ccc(C(F)(F)F)n(C)c3=O)c2o1` [Compound 5-2], in the data set on soybean (Gl), the “Phytotoxicity Gl” value amounted to 2. The “Herbicidal effects Am” value in the data set with slender amaranth (Am) [4] is 5. Besides, in the data set with China jute (Ab) [5], the “Herbicidal effects Ab” value is 5. In the data set on pale smartweed (Po) [6], the “Herbicidal effects Po” value is reported as 5.

As a reminder, the melting point is the temperature of the solid-liquid transition. In the case of `Cn1c(C(F)(F)F)ccc(-c2cc(C#N)c(Cl)cc2F)c1=O` [Compound No. 1-119, 3-(4-chloro-5-cyano-2-fluorophenyl)-1-methyl-6-trifluoromethyl-2(1H)-pyridone], the melting point was in the range of 180 to 181 °C. In addition, the “Phytotoxicity Gl” value in the data set with soybean (Gl) was 2. In addition, the “Herbicidal effects Am” value with slender amaranth (Am) [4] turned out to be 5. Besides, the “Herbicidal effects Ab” value in the data set on China jute (Ab) [5] is on record as 4. In the data set on pale smartweed (Po) [6], the “Herbicidal effects Po” value worked out at 5.

Regarding `CCCC(=O)c1cc(-c2ccc(C(F)(F)F)n(C)c2=O)c(F)cc1Cl` [Compound No. 1-194, 3-[4-chloro-2-fluoro-5-(1-oxobutyl)phenyl]-1-methyl-6-trifluoromethyl-2(1H)-pyridone], in [7], the “Herbicidal effects Ch” value stood at 5. In addition, the “Herbicidal effects Am” value with slender amaranth (Am) [8] was found to be 5. In the data set on China jute (Ab) [9], the “Herbicidal effects Ab” value amounted to 5. The “Herbicidal effects Po” value in the data set with pale smartweed (Po) [10] was 5. The “Phytotoxicity Go” value with cotton (Go) worked out at 2.

With `C#CCN1C(=O)COc2cc(F)c(-c3ccc(C(F)(F)F)n(C)c3=O)cc21` [Compound No. 2-1, 3-[7-fluoro-2,3-dihydro-4-(2-propynyl)-1,4-benzoxazin-3-on-6-yl]-1-methyl-6-trifluoromethyl-2(1H)-pyridone], the “Herbicidal effects Di” value in the data set on Diaitaria ciliaris (Di) [1] (dose 1.6 g ai/10a), with Diaitaria ciliaris (Di) [2] (dose 1.6 g ai/10 a), with Diaitaria ciliaris (Di) [3] (dose 1.6 g ai/10a) and in the data set with Diaitaria ciliaris (Di) [3] (dose 6.3 g ai/10a) was 5 each time. Moreover, the “Herbicidal effects So” value with Johnsongrass (So) (dose 1.6 g ai/10a) and in the data set with Johnsongrass (So) (dose 6.3 g ai/10a) was 5 each time.

Compound `C#CCn1c(=O)sc2cc(F)c(-c3ccc(C(F)(F)F)n(C)c3=O)cc21` [Compound No. 3-1, 3-[6-fluoro-3-(2-propynyl)-benzothiazolin-2-on-5-yl]-1-methyl-6-trifluoromethyl-2(1H)-pyridone] gave a melting point of 150 to 151 °C.

As to `COCc1cc2c(-c3ccc(C(F)(F)F)n(C)c3=O)c(F)cc(Cl)c2o1` [Compound No. 4-4, 3-(7-chloro-5-fluoro-2-methoxymethylbenzofuran-4-yl)-1-methyl-6-trifluoromethyl-2-(1H)-pyridone], the melting point lay in the range of 136 to 137 °C.

In turn, `Cn1c(C(F)(F)F)ccc(-c2c(F)cc(Cl)c3oc(CO)cc23)c1=O` [Compound No. 4-5, 3-(7-chloro-5-fluoro-2-hydroxymethylbenzofuran-4-yl)-1-methyl-6-trifluoromethyl-2-(1H)-pyridone] gave a melting point of 145 to 147 °C.

With `Cn1c(C(F)(F)F)ccc(-c2c(F)cc(Cl)c3occc23)c1=O` [Compound No. 4-28, 3-(7-chloro-5-fluorobenzofuran-4-yl)-1-methyl-6-trifluoromethyl-2-(1H)-pyridone], the melting point lay within 178 to 179 °C.

For the compound `Cn1cc(-c2cc(Oc3ccccc3)c(Cl)cc2F)c(=O)cc1C(F)(F)F` [Compound No. 6-19, 5-(4-chloro-2-fluoro-5-phenoxyphenyl)-1-methyl-2-trifluoromethyl-4(1H)-pyridone], the melting point was 159 to 161 °C. For the same compound, the “Herbicidal effects Di” value with Diaitaria ciliaris (Di) [1] (dose 1.6 g ai/10a) came to 5. Moreover, the “Herbicidal effects Di” value with Diaitaria ciliaris (Di) [1] (dose 6.3 g ai/10a) is 5. The “Herbicidal effects Di” value in the data set on Diaitaria ciliaris (Di) [2] (dose 1.6 g ai/10 a) is recorded as 5. Besides, the “Herbicidal effects Di” value in the data set with Diaitaria ciliaris (Di) [2] (dose 6.3 g ai/10 a) was 5. For the same compound, the “Herbicidal effects So” value with Johnsongrass (So) (dose 1.6 g ai/10a) amounted to 4. Further, in the data set with Johnsongrass (So) (dose 6.3 g ai/10a), the “Herbicidal effects So” value is reported as 5. Also, the “Herbicidal effects Di” value in the data set on Diaitaria ciliaris (Di) [3] (dose 1.6 g ai/10a) is 5. For the same compound, the “Herbicidal effects Di” value in the data set with Diaitaria ciliaris (Di) [3] (dose 6.3 g ai/10a) is given as 5.
